Target: T1, recombinant Axl tyrosine kinase (Homo sapiens, UniProt P30530)
T1 construct: encompassing amino acids 473 to 894 of Axl; GST (N); made in house; host or cells: SF126 insect cells
T1 sequence (P30530 473-894): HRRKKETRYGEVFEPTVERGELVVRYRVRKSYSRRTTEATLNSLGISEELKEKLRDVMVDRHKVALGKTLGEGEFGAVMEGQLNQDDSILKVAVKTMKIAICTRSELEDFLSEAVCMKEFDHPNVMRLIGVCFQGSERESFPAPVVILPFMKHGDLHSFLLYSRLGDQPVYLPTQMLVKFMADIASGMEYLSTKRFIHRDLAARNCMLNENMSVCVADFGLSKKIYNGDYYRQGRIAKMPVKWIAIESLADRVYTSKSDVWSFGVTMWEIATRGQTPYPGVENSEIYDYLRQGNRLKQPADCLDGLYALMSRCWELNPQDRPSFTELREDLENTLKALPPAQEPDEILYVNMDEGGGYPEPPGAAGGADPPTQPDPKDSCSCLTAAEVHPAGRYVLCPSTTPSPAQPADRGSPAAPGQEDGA
Assay: In vitro Axl kinase assay (AlphaScreen), Test (a)
Type: biochemical
Details: 1 μM; mean calculated from a larger number of replicates than the first value

| % Axl tyrosine kinase inhibition at 1 μM concentration (second value, †) | SMILES |
| --- | --- |
| 99.0% | Nc1ncc(-c2ccc(CN3CCOCC3)cc2)cc1-c1nc2cnccc2o1 [Example 8A.18] |

Same assay, conditions: test compound at 1 μM; first value quoted

| SMILES | % Axl tyrosine kinase inhibition at 1 μM concentration |
| --- | --- |
| COCCN1CCC(NC(=O)c2ccc(-c3cnc(N)c(-c4nc5cccnc5o4)c3)cc2)CC1 [Example 45A.10] | 97.5% |
| COc1cc(-c2cnc(N)c(-c3nc4ncccc4o3)c2)ccc1OCCCN [Example 43C.27] | 99.4% |
| CN(C)CCCOc1ccc(-c2cnc(N)c(-c3nc4ncccc4o3)c2)cc1 [Example 43B.10] | 98.4% |
| Nc1ncc(-c2ccc(C(=O)NCCN3CCC(F)(F)C3)cc2)cc1-c1nc2cccnc2o1 [Example 45A.37] | 92.2% |
| Nc1ncc(-c2ccc(C(=O)N3CCCCC3CN3CCCC3)cc2)cc1-c1nc2cccnc2o1 (centres unmarked) [Example 45A.23] | 99.8% |
| NCc1ccc(-c2cnc(N)c(-c3nc4cccnc4o3)c2)cc1 [Example 9A.13] | 98.3% |
| Nc1ncc(-c2ccc(C(=O)N3CC4CNCC4C3)cc2)cc1-c1nc2cccnc2o1 (centres unmarked) [Example 45A.94] | 98.9% |
| CCN(CC)CCCOc1ccc(-c2cnc(N)c(-c3nc4ncccc4o3)c2)cc1OC [Example 43C.18] | 99.8% |
| NCc1cccc(-c2cnc(N)c(-c3nc4ccccc4o3)c2)c1 [Example 2.4] | 99.1% |
| CN1CCN(CCOc2ccc(-c3cnc(N)c(-c4nc5ncccc5o4)c3)cc2)CC1 [Example 43B.7] | 98.1% |
| Nc1ncc(-c2ccc(OCCN3CCOCC3)cc2)cc1-c1nc2cccnc2o1 [Example 43A.2] | 97.2% |
| Nc1ncc(-c2ccc(C(=O)N3CCC(N)CC3)cc2)cc1-c1nc2cccnc2o1 [Example 45A.107] | 95.0% |
| Nc1ncc(-c2cccc(CN3CCCC3)c2)cc1-c1nc2cccnc2o1 [Example 9A.8] | 96.5% |
| CC(=O)N1CCC(n2cc(-c3cnc(N)c(-c4nc5ccccc5o4)c3)cn2)CC1 [Example 34.1] | 99.8% |
| Nc1ncc(-c2ccc(S(=O)(=O)NC3CC3)cc2)cc1-c1nc2ccccc2o1 [Example 2.30] | 96.1% |
| CN(C)CCCN(C)C(=O)c1ccc(-c2cnc(N)c(-c3nc4cccnc4o3)c2)cc1 [Example 45A.54] | 97.8% |

| SMILES | % Axl tyrosine kinase inhibition at 1 μM concentration |
| --- | --- |
| COc1cc(-c2cnc(N)c(-c3nc4ncccc4o3)c2)ccc1OCCN1CCCC1 [Example 43C.5] | 99.7% |
| CN1CCN(CCCNC(=O)c2ccc(-c3cnc(N)c(-c4nc5cccnc5o4)c3)cc2)CC1 [Example 45A.58] | 97.0% |
| Nc1ncc(-c2ccc(C(=O)N3CCC(O)CC3)cc2)cc1-c1nc2ncccc2o1 [Example 10A.13] | 91.1% |
| Nc1ncc(-c2ccc(C(=O)NCCN3CCOCC3)cc2)cc1-c1nc2ncccc2o1 [Example 45B.3] | 97.7% |
| COc1cc(-c2cnc(N)c(-c3nc4ncccc4o3)c2)ccc1OCCCN1CC(C)NC(C)C1 (centres unmarked) [Example 43C.34] | 99.1% |
| CC(C)(C)OC(=O)N1CCC(C(=O)Nc2cccc(-c3cnc(N)c(-c4nc5ncccc5o4)c3)c2)CC1 [Example 10A.3] | 87.2% |
| Nc1ncc(-c2cnn(C3CCN(C(=O)CO)CC3)c2)cc1-c1nc2ccccc2o1 [Example 34.2] | 100.0% |
| Nc1ncc(-c2cccc(CN3CCCCC3)c2)cc1-c1nc2cnccc2o1 [Example 8A.20] | 95.2% |
| Nc1ncc(-c2ccc(C(=O)NCCCN3CCOCC3)cc2)cc1-c1nc2cccnc2o1 [Example 45A.57] | 96.9% |
| Nc1ncc(-c2ccc(C(=O)N3CCC(N)C3)cc2)cc1-c1nc2cccnc2o1 (centres unmarked) [Example 45A.79] | 99.0% |
| CN(C)C(=O)[C@@H]1CCCN1C(=O)c1ccc(-c2cnc(N)c(-c3nc4cccnc4o3)c2)cc1 [Example 45A.75] | 91.6% |
| Nc1ncc(-c2ccc(OCCN3CCCC3)cc2)cc1-c1nc2ncccc2o1 [Example 43B.1] | 99.8% |
| CN1CCC(Oc2ccc(-c3cnc(N)c(-c4nc5ncccc5o4)c3)cc2)C1 (centres unmarked) [Example 43B.4] | 99.3% |
| COc1cc(-c2cnc(N)c(-c3nc4ncccc4o3)c2)ccc1OC1CCNCC1 [Example 43C.29] | 99.9% |
| Nc1ncc(-c2ccc(CN3CCOCC3)cc2)cc1-c1nc2cnccc2o1 [Example 8A.18] | 98.9% |
| CCS(=O)(=O)c1cccc(-c2cnc(N)c(-c3nc4ccccc4o3)c2)c1 [Example 2.5] | 73.5% |

More lines, now with the values ahead:

| % Axl tyrosine kinase inhibition at 1 μM concentration | SMILES |
| --- | --- |
| 99.0% | CS(=O)(=O)N1CCC(n2cc(-c3cnc(N)c(-c4nc5ncccc5o4)c3)cn2)CC1 [Example 55.1] |
| 100.0% | COc1nn(C2CCN(C)CC2)cc1-c1cnc(N)c(-c2nc3ccccc3o2)c1 [Example 41.14] |
| 99.1% | CO[C@H](C)C(=O)N1CCC(n2cc(-c3cnc(N)c(-c4nc5cccnc5o4)c3)cn2)CC1 [Example 59.9] |
| 100.0% | COc1cccc2nc(-c3cc(-c4cn(C5CCNCC5)nc4C)cnc3N)oc12 [Example 62.15] |
| 85.6% | Nc1ncc(-c2cccc(N3CCCC3)c2)nc1-c1nc2ccccc2o1 [Example 20.5] |
| 97.7% | CN1CCN(c2ccc(-c3cnc(N)c(-c4nc5cccnc5o4)c3)cc2)CC1 [Example 25.10] |
| 100.0% | Nc1ncc(-c2ccc(N3CCNCC3)cc2)nc1-c1nc2ccccc2o1 [Example 20.11] |
| 99.9% | CN(C)C(=O)CN1CCC(n2cc(-c3cnc(N)c(-c4nc5ccccc5o4)c3)cn2)CC1 [Example 53.8] |
| 100.0% | CCN1CCC(n2cc(-c3cnc(N)c(-c4nc5ccccc5o4)c3)cn2)CC1 [Example 4.1] |
| 100.0% | NC(=O)CN1CCC(n2cc(-c3cnc(N)c(-c4nc5ccccc5o4)c3)cn2)CC1 [Example 53.6] |
| 94.3% | Nc1ncc(-c2cnn(CCN3CCC3)c2)cc1-c1nc2ccccc2o1 [Example 31.10] |
| 99.6% | CN1CCN(c2ccc(-c3cnc(N)c(-c4nc5ccccc5o4)n3)cn2)CC1 [Example 20.7] |
| 99.6% | CC(C)c1ccc2nc(-c3cc(-c4cnn(C5CCN(C)CC5)c4)cnc3N)oc2c1 [Example 7.4] |
| 99.7% | CC(O)c1nn(C2CCN(C)CC2)cc1-c1cnc(N)c(-c2nc3c(C#N)cccc3o2)c1 (centres unmarked) [Example 41.41] |
| 100.0% | COCc1nn(C2CCN(C)CC2)cc1-c1cnc(N)c(-c2nc3c(F)cccc3o2)c1 [Example 41.34] |
| 91.8% | CN(C)S(=O)(=O)c1cccc(-c2cnc(N)c(-c3nc4ccccc4o3)n2)c1 [Example 20.1] |
| 99.7% | CN(C)C(=O)CN1CCC(n2cc(-c3cnc(N)c(-c4nc5ncccc5o4)c3)cn2)CC1 [Example 53.1] |
| 99.9% | CC(O)c1nn(C2CCN(C)CC2)cc1-c1cnc(N)c(-c2nc3ccccc3o2)c1 (centres unmarked) [Example 41.29] |
| 99.5% | COC(=O)N1CCC(n2cc(-c3cnc(N)c(-c4nc5ncccc5o4)c3)cn2)CC1 [Example 55.3] |
| 99.1% | CN1CCN(c2ccc(-c3cnc(N)c(-c4nc5ncccc5o4)c3)cc2)CC1 [Example 25.7] |

Same assay, conditions: test compound at 1 μM; first value quoted; read-out: % Axl tyrosine kinase inhibition at 1 μM concentration

| inhibition at 1 µM | SMILES |
| --- | --- |
| 99.8% | CCN1CCC(n2cc(-c3cnc(N)c(-c4nc5ncccc5o4)c3)cn2)CC1 [Example 52, 5-[1-(1-ethyl-4-piperidyl)pyrazol-4-yl]-3-oxazolo[4,5-b]pyridin-2-yl-pyridin-2-amine] |
| 99.8% | CC(O)c1nn(C2CCNCC2)cc1-c1cnc(N)c(-c2nc3ccccc3o2)c1 (centres unmarked) [Example 60, 1-[4-[6-amino-5-(1,3-benzoxazol-2-yl)-3-pyridyl]-1-(4-piperidyl)pyrazol-3-yl]ethanol] |
| 90.6% | C[N+]1([O-])CCC(n2cc(-c3cnc(N)c(-c4nc5ccccc5o4)c3)cn2)CC1 (centres unmarked) [Example 12, 3-(1,3-Benzoxazol-2-yl)-5-[1-(1-methyl-1-oxido-piperidin-1-ium-4-yl)pyrazol-4-yl]pyridin-2-amine] |
| 100% | COc1ccc2oc(-c3cc(-c4cnn(C5CCN(C)CC5)c4)cnc3N)nc2c1 [Example 35A, 3-(5-methoxy-1,3-benzoxazol-2-yl)-5-[1-(1-methyl-4-piperidyl)pyrazol-4-yl]pyridin-2-amine] |
| 100% | Cc1c(-c2cnc(N)c(-c3nc4ccccc4o3)c2)cnn1C1CCNCC1 [Example 24, 3-(1,3-benzoxazol-2-yl)-5-[5-methyl-1-(4-piperidyl)pyrazol-4-yl]pyridin-2-amine] |
| 99.8% | CN1CCC(n2cc(-c3cnc(N)c(-c4nc5ccccc5s4)c3)cn2)CC1 [Example 16, 3-(1,3-Benzothiazol-2-yl)-5-[1-(1-methyl-4-piperidyl)pyrazol-4-yl]pyridin-2-amine] |

From patent US8017611B2, “Pyridine and pyrazine derivatives -083” (AstraZeneca AB, priority 2007, dated 2011)
